43 molecules from ChEMBL document CHEMBL6127128, “Discovery of the First-in-Class Dual-Target ROCK/HDAC Inhibitor with Potent Antitumor Efficacy in Vivo That Trigger Antitumor Immunity” (J Med Chem, 2024) can be followed below.

Activity calls are given as the source filed them. The rule behind the calls is not given here.

Test [1] addresses Rho-associated protein kinase 2 (Homo sapiens, UniProt O75116). Description: Inhibition of N-terminal GST-tagged human recombinant wild type ROCK2 (1 to 553 residues) expressed in baculovirus-infected Sf21 cells by HTRF KinEASE assay.
Another test relates to MDA-MB-231. Description: Cytotoxicity against human MDA-MB-231 cells assessed as reduction in cell viability incubated for 72 hrs by SRB assay. The test is classed as functional, cell-based. Particulars: MDA-MB-231, 72 h.
The target in test [2] is Rho-associated protein kinase 1 (Homo sapiens, UniProt Q13464). Briefly: Inhibition of N-terminal GST-tagged human recombinant ROCK1 (17 to 535 residues) expressed in baculovirus-infected Sf9 cells by HTRF KinEASE assay.
The subject of test [3] is 4T1. Description: Antitumor immunity against mouse 4T1 cells implanted in Balb/c mouse assessed as increase in CD3+ T cells in tumor tissue at 50 mg/kg, po administered daily for 15 days by flow cytometry. The test is classed as functional, organism-based. The note with it: time 15.0 day.
Test [4] concerns 4T1. Description: Antitumor immunity against mouse 4T1 cells implanted in Balb/c mouse assessed as increase in CD4+ T cells in tumor tissue at 50 mg/kg, po administered daily for 15 days by flow cytometry. Format: functional, organism-based. The note with it: time 15.0 day.
The subject of test [5] is 4T1. Description: Antitumor immunity against mouse 4T1 cells implanted in Balb/c mouse assessed as increase in CD8+ T cells in tumor tissue at 50 mg/kg, po administered daily for 15 days by flow cytometry. Format: functional, organism-based. The note with it: time 15.0 day.
For test [6], the system named is 4T1. Briefly: Cytotoxicity against mouse 4T1 cells assessed as reduction in cell viability. The test is classed as functional, cell-based.

Chain of Rho-associated protein kinase 2 (O75116 whole entry, the tested form may be a part): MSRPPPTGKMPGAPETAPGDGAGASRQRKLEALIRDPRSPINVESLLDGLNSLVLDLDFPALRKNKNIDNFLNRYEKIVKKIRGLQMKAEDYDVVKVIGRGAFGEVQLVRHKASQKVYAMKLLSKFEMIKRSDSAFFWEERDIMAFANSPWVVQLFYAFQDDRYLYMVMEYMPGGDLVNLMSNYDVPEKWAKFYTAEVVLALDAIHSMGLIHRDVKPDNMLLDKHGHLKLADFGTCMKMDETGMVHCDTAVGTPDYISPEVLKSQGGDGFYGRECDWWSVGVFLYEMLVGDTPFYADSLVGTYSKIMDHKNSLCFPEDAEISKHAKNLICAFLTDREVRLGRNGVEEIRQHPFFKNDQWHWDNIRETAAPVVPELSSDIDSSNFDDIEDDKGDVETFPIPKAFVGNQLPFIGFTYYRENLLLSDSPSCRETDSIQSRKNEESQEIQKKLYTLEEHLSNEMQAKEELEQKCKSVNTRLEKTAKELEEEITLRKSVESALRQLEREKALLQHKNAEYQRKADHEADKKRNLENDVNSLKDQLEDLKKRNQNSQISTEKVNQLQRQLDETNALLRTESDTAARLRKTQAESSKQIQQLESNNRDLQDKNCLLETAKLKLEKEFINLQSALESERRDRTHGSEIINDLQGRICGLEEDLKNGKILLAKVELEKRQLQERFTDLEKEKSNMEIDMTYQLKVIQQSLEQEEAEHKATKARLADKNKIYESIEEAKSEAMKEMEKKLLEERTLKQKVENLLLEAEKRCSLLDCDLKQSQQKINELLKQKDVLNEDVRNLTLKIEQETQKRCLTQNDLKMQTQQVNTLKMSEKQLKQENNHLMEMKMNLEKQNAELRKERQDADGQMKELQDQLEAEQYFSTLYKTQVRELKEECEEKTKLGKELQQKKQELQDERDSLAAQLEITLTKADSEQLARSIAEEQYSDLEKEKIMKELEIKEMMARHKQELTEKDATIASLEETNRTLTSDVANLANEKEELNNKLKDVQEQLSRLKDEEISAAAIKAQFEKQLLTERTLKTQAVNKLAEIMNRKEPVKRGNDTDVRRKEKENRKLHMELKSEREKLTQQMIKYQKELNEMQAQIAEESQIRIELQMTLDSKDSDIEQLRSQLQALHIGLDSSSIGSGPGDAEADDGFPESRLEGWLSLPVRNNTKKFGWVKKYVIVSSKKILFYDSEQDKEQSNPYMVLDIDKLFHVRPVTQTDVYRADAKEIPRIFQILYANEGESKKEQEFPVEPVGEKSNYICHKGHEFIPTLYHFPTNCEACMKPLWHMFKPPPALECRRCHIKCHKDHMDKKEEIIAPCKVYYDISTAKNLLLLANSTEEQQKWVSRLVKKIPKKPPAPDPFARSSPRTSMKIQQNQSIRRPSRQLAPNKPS

For `COc1cccc(CN(CCN(C)C)C(=O)c2nc3ccc(-c4cn[nH]c4)cc3s2)c1`, the IC50 in test [1] is < 1 nM.

Take `O=C(CCCCCNC(=O)c1cc2cc(-c3cn[nH]c3)ccc2s1)NO`: in the test with MDA-MB-231, the half-inhibitory concentration (IC50) was > 10000 nM.

As to `COc1cccc(CNC(=O)c2cc3c(-c4cn[nH]c4)cccc3s2)c1`, the 50% inhibitory concentration (IC50) in test [1] is > 1000 nM.

For `O=C(CCCCCNC(=O)c1cc2c(-c3cn[nH]c3)cccc2s1)NO`, in the test with MDA-MB-231, the IC50 was determined as 3210 nM.

In the case of `COc1cccc(CNC(=O)c2cc3cc(-c4cccc5cnccc45)ccc3s2)c1`, the 50% inhibitory concentration (IC50) in test [1] was > 1000 nM.

For the molecule `COc1cccc(CNC(=O)c2cc3c(-c4ccncc4)cccc3s2)c1`, the IC50 in test [1] was > 1000 nM.

`O=C(CCCCCCCNC(=O)c1cc2cc(-c3cn[nH]c3)ccc2s1)NO`: the IC50 in the test with MDA-MB-231 is 6420 nM.

Regarding `CN[C@@H]1C[C@H](c2ccc3c(c2O)C(=O)c2c(C)sc(C(C)=O)c2C3=O)O[C@H](C)[C@H]1O`, in test [1], the IC50 is 8890 nM.

For `O=C(CCCCCCCNC(=O)c1cc2c(-c3ccncc3)cccc2s1)NO`, the IC50 in the test on MDA-MB-231 was > 10000 nM.

With `COc1cccc(CNC(=O)c2cc3c(-c4cccc5cnccc45)cccc3s2)c1`, the IC50 in test [1] is > 1000 nM.

Regarding `COc1cccc(CNC(=O)c2cc3ccc(-c4ccc5[nH]ncc5c4)cc3s2)c1`, in test [1], the IC50 is > 1000 nM.

As to `O=C(CCCCCCNC(=O)c1cc2c(-c3cn[nH]c3)cccc2s1)NO`, in the test on MDA-MB-231, the half-maximal inhibitory concentration (IC50) is > 10000 nM.

For `COc1cccc(CNC(=O)c2cc3ccc(-c4cn[nH]c4)cc3s2)c1`, the “inhibition (active/inactive call)” value in test [2] was “Active”. For the same molecule, the IC50 in test [1] amounted to 7.94 nM.

Take `COc1cccc(CNC(=O)c2cc3cc(-c4ccc5[nH]ncc5c4)ccc3s2)c1`: the IC50 in test [1] is > 1000 nM.

For `COc1cccc(CNC(=O)c2cc3cc(-c4ccncc4)ccc3s2)c1`, the IC50 in test [1] was > 1000 nM.

In the case of `COc1cccc(CNC(=O)c2cc3c(-c4ccc5[nH]ncc5c4)cccc3s2)c1`, the IC50 in test [1] is > 1000 nM.

Regarding `O=C(CCCCCCC(=O)Nc1ccccc1)NO` [VORINOSTAT], the 50% inhibitory concentration (IC50) in the test with MDA-MB-231 came to 660 nM. In addition, the outcome with 4T1 [3], with 4T1 [4] and in the test on 4T1 [5] was Active.

With `O=C(CCCCCNC(=O)c1cc2cccc(-c3ccncc3)c2s1)NO`, the IC50 in the test with MDA-MB-231 was > 10000 nM.

In the case of `O=C(CCCCCCNC(=O)c1cc2ccc(-c3ccncc3)cc2s1)NO`, the IC50 with MDA-MB-231 amounted to 950 nM.

In the case of `COc1cccc(CNC(=O)c2cc3cc(-c4cn[nH]c4)ccc3s2)c1`, the “inhibition (active/inactive call)” value in test [2] was “Active”. Moreover, in test [1], the concentration for half-maximal inhibition (IC50) is 6.75 nM.

`COc1cccc(CNC(=O)c2cc3cccc(-c4cccc5cnccc45)c3s2)c1`: in test [1], the 50% inhibitory concentration (IC50) is > 1000 nM.

Turning to `O=C(CCCCCNC(=O)c1cc2c(-c3ccncc3)cccc2s1)NO`, the IC50 in the test on MDA-MB-231 was > 10000 nM.

Take `O=C(CCCCCCNC(=O)c1cc2c(-c3ccncc3)cccc2s1)NO`: the half-inhibitory concentration (IC50) with MDA-MB-231 came to 2900 nM.

`C[C@@H](N)[C@H]1CC[C@H](C(=O)Nc2ccncc2)CC1` [Y-27632]: the half-inhibitory concentration (IC50) in the test on MDA-MB-231 and with 4T1 [6] was > 10000 nM throughout.

Regarding `O=C(CCCCCCCNC(=O)c1cc2ccc(-c3cn[nH]c3)cc2s1)NO`, the IC50 with MDA-MB-231 stood at 760 nM.

In the case of `O=C(CCCCCCCNC(=O)c1cc2cccc(-c3cn[nH]c3)c2s1)NO`, the IC50 in the test on MDA-MB-231 was > 10000 nM.

`O=C(CCCCCCCNC(=O)c1cc2cc(-c3ccncc3)ccc2s1)NO`: the IC50 in test [2] is > 1000 nM; in test [1] it was > 1000 nM; with MDA-MB-231, 420 nM.

Regarding `COc1cccc(CNC(=O)c2cc3cccc(-c4ccncc4)c3s2)c1`, the IC50 in test [1] was > 1000 nM.

For the molecule `O=C(CCCCCNC(=O)c1cc2ccc(-c3ccncc3)cc2s1)NO`, in the test on MDA-MB-231, the IC50 was > 10000 nM.

As to `COc1cccc(CNC(=O)c2cc3cccc(-c4ccc5[nH]ncc5c4)c3s2)c1`, in test [1], the IC50 was > 1000 nM.

In the case of `COc1cccc(CNC(=O)c2cc3cccc(-c4cn[nH]c4)c3s2)c1`, in test [2], the “inhibition (active/inactive call)” value is “Active”. The concentration for half-maximal inhibition (IC50) in test [1] was determined as 225 nM.

Regarding `COc1cccc(CNC(=O)c2cc3ccc(-c4cccc5cnccc45)cc3s2)c1`, the concentration for half-maximal inhibition (IC50) in test [1] was > 1000 nM.

Take `COc1cccc(CNC(=O)c2cc3ccc(-c4ccncc4)cc3s2)c1`: the “inhibition (active/inactive call)” value in test [2] was “Active”. Besides, the IC50 in test [1] came out at 296 nM.

Take `O=C(CCCCCCCNC(=O)c1cc2c(-c3cn[nH]c3)cccc2s1)NO`: the half-inhibitory concentration (IC50) with MDA-MB-231 was > 10000 nM.

Turning to `O=C(CCCCCCNC(=O)c1cc2cccc(-c3ccncc3)c2s1)NO`, the IC50 in the test on MDA-MB-231 was determined as 1540 nM.

For `O=C(CCCCCNC(=O)c1cc2cccc(-c3cn[nH]c3)c2s1)NO`, the IC50 in the test on MDA-MB-231 is > 10000 nM.

Regarding `O=C(CCCCCNC(=O)c1cc2cc(-c3ccncc3)ccc2s1)NO`, the concentration for half-maximal inhibition (IC50) in the test with MDA-MB-231 was > 10000 nM.

As for `O=C(CCCCCCNC(=O)c1cc2cc(-c3ccncc3)ccc2s1)NO`, the concentration for half-maximal inhibition (IC50) is > 1000 nM in test [2], > 1000 nM in test [1] and 130 nM in the test on MDA-MB-231.

Regarding `O=C(CCCCCCNC(=O)c1cc2cccc(-c3cn[nH]c3)c2s1)NO`, the 50% inhibitory concentration (IC50) in the test on MDA-MB-231 is 9050 nM.

With `O=C(CCCCCCCNC(=O)c1cc2cccc(-c3ccncc3)c2s1)NO`, the 50% inhibitory concentration (IC50) in the test on MDA-MB-231 was > 10000 nM.

In the case of `O=C(CCCCCCNC(=O)c1cc2ccc(-c3cn[nH]c3)cc2s1)NO`, the half-inhibitory concentration (IC50) in the test on MDA-MB-231 came out at 1260 nM.

Turning to `O=C(CCCCCNC(=O)c1cc2ccc(-c3cn[nH]c3)cc2s1)NO`, the half-inhibitory concentration (IC50) in the test on MDA-MB-231 is > 10000 nM.

With `O=C(CCCCCCCNC(=O)c1cc2ccc(-c3ccncc3)cc2s1)NO`, the IC50 in test [2] was > 1000 nM; in test [1] it was > 1000 nM; in the test on MDA-MB-231, 460 nM.
